From PMC9465256, “Discovering monoacylglycerol lipase inhibitors by a combination of fluorogenic substrate assay and activity-based protein profiling” (Frontiers in Pharmacology, 2022)
pIC50: −log10 of the molar value. Entries after “also recorded” stand apart in the source; their conditions may differ.

Legend:
ABHD6 in cancer cells = assay: Competitive ABPP in cancer cell lysates: ABHD6 band; type: biochemical; details: 10 μM preincubation, A431 and B16-F10 cells
Description: (§1) To identify the potential off-targets of the compounds with anti-cancer activities, ABPP was applied. Cancer cells were seeded in the dishes and were washed with PBS, scraped, centrifugated (3,000 × g, 3 min) and pellets snap frozen in liquid in nitrogen. For ABPP experiments, the cell pellets were lysed by probe sonication (3 × 10 bursts) in PBS, followed by the determination of protein concentration of the intact cell lysate by Qubit assay. […] The reactions were then quenched by 10 µl sample buffer (×4). The obtained samples were directly loaded and resolved on SDS-PAGE gel (10% acrylamide). The gel-based ABPP results were then scanned and analyzed using a ChemiDoc MP system (Cy3 settings, BioRad).

human ABHD6 = molecular target: T1, human ABHD6 (Homo sapiens, UniProt Q9BV23); assay: ABHD6 activity assay (AA-HNA fluorogenic substrate); type: biochemical
T1 construct: expressed in transfected cells; host or cells: HEK293T (transient transfection; membrane fraction)
T1 sequence (Q9BV23 1-337): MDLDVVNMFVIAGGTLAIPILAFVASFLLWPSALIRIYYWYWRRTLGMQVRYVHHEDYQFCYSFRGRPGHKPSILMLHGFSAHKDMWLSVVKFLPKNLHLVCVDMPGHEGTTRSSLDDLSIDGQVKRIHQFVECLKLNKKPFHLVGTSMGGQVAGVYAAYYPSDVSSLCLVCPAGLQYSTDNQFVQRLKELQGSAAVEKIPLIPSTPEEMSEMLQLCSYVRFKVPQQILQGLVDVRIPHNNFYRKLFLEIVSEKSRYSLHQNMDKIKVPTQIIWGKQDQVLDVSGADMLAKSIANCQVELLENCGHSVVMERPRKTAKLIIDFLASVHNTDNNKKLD
Outline: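 Membranes from HEK293T cells transiently overexpressing human ABHD6 (50 μg/ml final) were preincubated 30 min with inhibitor in 40 mM HEPES pH 7.5, 0.1 mg/ml BSA, 5% DMSO. Hydrolysis of 200 µM AA-HNA was followed by fluorescence for 30 min, activity taken as the 5–15 min slope.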

human ABHD12 = molecular target: T2, human ABHD12 (Homo sapiens, UniProt Q8N2K0); assay: ABHD12 activity by competitive ABPP with FP-TAMRA; type: biochemical; details: 100 µM compound; competitive ABPP with probe FP-TAMRA (250 nM); read-out: ABHD12 Inhibition (%)
T2 construct: expressed in transfected cells; host or cells: HEK293T (transient transfection; membrane fraction)
T2 sequence (Q8N2K0 1-398): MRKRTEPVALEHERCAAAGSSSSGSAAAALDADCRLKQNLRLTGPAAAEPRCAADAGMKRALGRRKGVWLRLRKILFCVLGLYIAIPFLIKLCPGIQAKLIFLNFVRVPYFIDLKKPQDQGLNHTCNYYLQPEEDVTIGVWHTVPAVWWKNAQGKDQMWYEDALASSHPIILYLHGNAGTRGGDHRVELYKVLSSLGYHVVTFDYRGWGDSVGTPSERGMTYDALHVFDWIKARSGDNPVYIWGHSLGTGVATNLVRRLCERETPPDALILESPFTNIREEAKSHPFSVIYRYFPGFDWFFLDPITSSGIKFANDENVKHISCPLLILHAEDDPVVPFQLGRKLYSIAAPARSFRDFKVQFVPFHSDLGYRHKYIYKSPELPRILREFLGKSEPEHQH
Outline: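 Membrane fractions of HEK293T cells transiently overexpressing human ABHD12 (1 mg/ml) preincubated with inhibitor or DMSO for 30 min at room temperature, then labelled with FP-TAMRA (250 nM final) for 20 min. Quenched samples resolved by SDS-PAGE and read by in-gel fluorescence scanning (Cy3 settings).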

human MAGL = molecular target: T3, human MAGL (Homo sapiens, UniProt Q99685); assay: MAGL activity assay (AA-HNA fluorogenic substrate); type: biochemical
T3 construct: expressed in transfected cells; host or cells: HEK293T (transient transfection; membrane fraction)
T3 sequence (Q99685 1-303): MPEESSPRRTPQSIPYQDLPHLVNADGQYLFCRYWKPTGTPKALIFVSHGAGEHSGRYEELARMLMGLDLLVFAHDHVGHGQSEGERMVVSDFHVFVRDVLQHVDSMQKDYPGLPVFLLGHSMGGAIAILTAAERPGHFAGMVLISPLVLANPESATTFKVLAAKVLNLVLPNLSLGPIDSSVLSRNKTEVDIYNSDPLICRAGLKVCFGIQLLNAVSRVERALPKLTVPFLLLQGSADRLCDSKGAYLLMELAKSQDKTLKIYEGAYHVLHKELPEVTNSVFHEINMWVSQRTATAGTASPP
Outline: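 Membranes from transiently transfected HEK293T cells overexpressing MAGL were preincubated with inhibitor for 30 min in 40 mM HEPES pH 7.5 with 0.1 mg/ml BSA. AA-HNA substrate was then added (10 µl of 200 µM stock), and fluorescence was read every minute for 30 min. Activity was taken from the slope between 5 and 15 min.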

[1] = system: serine hydrolases labeled by FP-TAMRA in mouse brain membrane proteome; assay: Competitive ABPP selectivity assay, mouse brain membrane proteome; type: biochemical; details: 100 µM, FP-TAMRA 250 nM
Description: Mouse brains were dounce homogenized lysis buffer (20 mM HEPES, 2 mM DTT, 1 mM MgCl2, 25 U/mL benzonase) and incubated on ice for 15 min, followed by low-speed spin (2,500 g, 3 min, 4 C) to remove debris. The supernatant was subjected to ultracentrifugation (100,000 g, 45 min, 4°C) to generate the cytosolic fraction in the supernatant, as well as the membrane fraction as a pellet. After removal of the soluble supernatant, the pellet was resuspended in storage buffer (20 mM HEPES, 2 mM DTT) by pipetting. Total protein concentrations in membrane and soluble fractions were determined using a Qubit protein assay (Invitrogen). The obtained samples were stored at −80°C until further use.
The competitive ABPP selectivity assay was performed according to the previously reported protocol. Briefly, mouse brain membrane proteome (2 mg/ml, 20 µl) was preincubated for 30 min with 0.5 µl of DMSO (vehicle) or inhibitor (100 μM, finial concentration). […] The reactions were then quenched by 10 µl sample buffer (×4). The obtained samples were directly loaded and resolved on SDS-PAGE gel (10% acrylamide). The gels were then scanned and analyzed using a ChemiDoc MP system (Cy3 settings, BioRad). All the samples were measured and duplicated.

H1975 cells = assay: Cell viability assay (CCK-8), H1975; type: cell-based; details: H1975, 48 h
Description: (§2) Various cancer cell lines, including human colon cancer cell line HT-29, ovarian cell line OVCAR-3, melanoma cell line B16-F10, skin squamous cancer cells A431, cervical cancer cells Hela, lung cancer cell lines A549, H1975, and HCC827, were purchased from American type culture collection (ATCC). A431, H1975, B16-F10, OVCAR-3, HT-29, HCC827, Hela, and A549 cells were cultured in Dulbecco’s modified Eagle medium (DMEM, Gibco) containing 10% fetal bovine serum (FBS, Gibco), penicillin (100 U/ml) and streptomycin (100 μg/ml). All cell lines were maintained in a humidified 37°C incubator with 5% CO2. The medium was refreshed every 2–3 days and the cells were passaged at ∼90% confluence by adding the fresh medium, followed by vigorously pipetting the resuspend cells. Of note, the cells were only washed with PBS when a significant number of dead cells were observed.
(§3) The antiproliferation activity of the compounds against the cancer cell lines was evaluated using Cell Counting Kit-8. Briefly, cells (∼1,000 per well) in 100 µl of culture medium were plated in a 96-well plate for 24 h and 100 µl of medium with different concentrations of the tested compounds was added to each well for 48 h. Then 10 μl of CCK8 solution (#CK04, Dojindo) was added and incubated at 37°C for 2 h. The absorbance of each well was measured with a plate reader (BioTeck) at 450 nm. Cell viability was calculated as follows: cell viability (%) = [(As-Ab)/(Ac-Ab)] × 100. Among them, As represents the absorbance of experimental wells, Ab represents the absorbance of blank wells and Ac represents the absorbance of control wells. The experiments were repeated at least three times and IC50 values were determined by plotting a log(inhibitor) v. s normalized response (Variable slope) dose–response curve generated using GraphPad Prism software.

OVCAR-3 cells = assay: Cell viability assay (CCK-8), OVCAR-3; type: cell-based; details: OVCAR-3, 48 h
Description: as §2, §3

HCC827 cells = assay: Cell viability assay (CCK-8), HCC827; type: cell-based; details: HCC827, 48 h
Description: as §2, §3

A431 cells = assay: Cell viability assay (CCK-8), A431; type: cell-based; details: A431, 48 h, CCK-8
Description: as §2, §3

HT-29 cells = assay: Cell viability assay (CCK-8), HT-29; type: cell-based, human; details: HT-29, 48 h
Description: as §2, §3

B16-F10 cells = assay: Cell viability assay (CCK-8), B16-F10; type: cell-based; details: B16-F10, 48 h, CCK-8
Description: as §2, §3

[2] = system: endogenous MAGL in cancer cells; assay: Competitive ABPP in cancer cell lysates: MAGL band; type: biochemical; details: 10 μM preincubation, cancer cell lysates
Description: as §1

A549 cells = assay: Cell viability assay (CCK-8), A549; type: cell-based; details: A549, 48 h
Description: as §2, §3

Hela cells = assay: Cell viability assay (CCK-8), Hela; type: cell-based; details: 48 h
Description: as §2, §3

[3] = 100 µM, AA-HNA substrate assay, Supplementary Table 1, read-out: MAGL Inhibition (%)
[4] = 100 µM, AA-HNA substrate assay, Supplementary Table 2, read-out: ABHD6 Inhibition (%)

O=C(N1CCCCC1c1ccccc1)n1cc(-c2ccc(-c3cccc(CO)c3)cc2)nn1 (stereo not shown) [KT182, reference compound]
labeling of ABHD6 (∼32 kDa) (ABHD6 in cancer cells): disappeared | effect on fluorescent signal of AA-HNA hydrolysis by ABHD6 (human ABHD6; 10 µM): reduction of the fluorescent signal

O=c1c(O)c(-c2ccc(O)c(O)c2)oc2cc(O)cc(O)c12 [compound 70, Quercetin]
activity at 100 µM (human ABHD12): 75.1% | activity at 100 µM (human MAGL; [3]): 42% | selectivity profile over serine hydrolases [1]: broad-spectrum inhibitors that cross-reacted with multiple serine hydrolases | activity at 100 µM (human ABHD6; [4]): 48.6%

O=C(CCc1ccc(O)cc1)c1c(O)cc(O)cc1O [compound 66, Dihydronaringenin]
activity (human ABHD12): 119% | activity (human MAGL; [3]): 41.3% | selectivity profile over serine hydrolases [1]: broad-spectrum inhibitors that cross-reacted with multiple serine hydrolases | activity (human ABHD6; [4]): 115%

Cc1cc2c(C(C)C)c(O)c(O)c(C=O)c2c(O)c1-c1c(C)cc2c(C(C)C)c(O)c(O)c(C=O)c2c1O [compound 34, Gossypol Acetate]
activity at 100 µM (human ABHD12): 43.7% | activity at 100 µM (human MAGL; [3]): 35.2% | selectivity profile over serine hydrolases [1]: broad-spectrum inhibitors that cross-reacted with multiple serine hydrolases | activity at 100 µM (human ABHD6; [4]): 26.3%

O=C(OC(C(F)(F)F)C(F)(F)F)N1CCC(C(O)(c2ccc3c(c2)OCO3)c2ccc3c(c2)OCO3)CC1 [KML29, reference compound]
Antiproliferation activity (pIC50 ± SEM) H1975 (H1975 cells): <5 | Antiproliferation activity (pIC50 ± SEM) OVCAR-3 (OVCAR-3 cells): <5 | Antiproliferation activity (pIC50 ± SEM) HCC827 (HCC827 cells): <5 | Antiproliferation activity (pIC50 ± SEM) A431 (A431 cells): <5 | Antiproliferation activity (pIC50 ± SEM) HT-29 (HT-29 cells): 5.0 ± 0.3 | Antiproliferation activity (pIC50 ± SEM) B16-F10 (B16-F10 cells): 5.0 ± 0.2 | pIC50 (human MAGL; 30 min preincubation, dose-response curve, read-out: IC50 (MAGL, AA-HNA assay)): 7.06 | effect on fluorescent signal of AA-HNA hydrolysis by MAGL (human MAGL; preincubation with 1 µM): significantly reduced the fluorescent signal to the background level; also recorded: reduction of the fluorescent signal | fluorescent band of MAGL (∼33 kDa) in ABPP gels [2]: competed away | Antiproliferation activity (pIC50 ± SEM) A549 (A549 cells): <5 | Antiproliferation activity (pIC50 ± SEM) Hela (Hela cells): <5
